# Values of other authors as cited in US7947313B2, “Compositions for diabetes treatment and prophylaxis” (Ayurvedic-Life International, LLC, priority 2003, dated 2011).
# Legend:
# rat chorda tympani nerve = conditions: stimuli such as glucose, sucrose, glycine and saccharine; Fletcher et al. 1999
# [1] = Fletcher et al. 1999
substance,measurement,setting,value
gurmarin,response of the rat chorda tympani nerve to sweet taste stimuli,rat chorda tympani nerve,suppressing the response
same,effect in humans,[1],no apparent effect
